We go through nine molecules from patent US6410576B1, “Thiazolidine derivatives” (Santen Pharmaceutical Co., Ltd., priority 1998, dated 2002).

pIC50: −log10 of the molar value. Structures can show the parent of a compound that is named as a salt.

In data set [1] the target is T1, chymase extracted from a dog cardiac tissue (Canis lupus familiaris, UniProt P21842).
T1 construct: a heart is enucleated, and left ventricle is separated; from tissue; host or cells: beagle heart, left ventricle
T1 sequence (P21842 22-249): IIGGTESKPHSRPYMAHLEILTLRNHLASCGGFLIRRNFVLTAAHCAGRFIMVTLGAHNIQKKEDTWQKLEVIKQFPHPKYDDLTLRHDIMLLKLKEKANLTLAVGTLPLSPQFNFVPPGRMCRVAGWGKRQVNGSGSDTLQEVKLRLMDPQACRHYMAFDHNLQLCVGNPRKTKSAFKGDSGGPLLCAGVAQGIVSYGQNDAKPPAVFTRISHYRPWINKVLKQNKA
Description: Chymase inhibitory effect (liberation of His-Leu from angiotensin I, fluorescence intensity). It is filed as biochemical. The settings on record: angiotensin I substrate, 37° C. for one hour, pH 8 reaction buffer; read-out: IC50 (concentration required to inhibit the chymase enzymatic activity by 50%). From the text: Chymase (enzyme) causes angiotensin I (substrate) to liberate a dipeptide (His-Leu) by the enzyme reaction with the substrate. It was reported that an enzymatic activity of chymase can be measured by measuring fluorescence intensity of the resulting peptide (Biochem. Biophys. Res. Com., 149 (3) 1186 (1987)). Since drugs having chymase inhibitory activities suppress this liberation of the dipeptide, the chymase inhibitory activities of the drugs can be measured by measuring fluorescence intensity. In the present pharmacological test, chymase inhibitory effects of the present compounds were studied by using chymase extracted from a dog cardiac tissue (J. Biol. Chem., 265 (36), 22348 (1990)).
1. A beagle is killed by drawing blood under Nembutal anesthesia, a heart is enucleated, and left ventricle is separated.
2. This left ventricle is finely minced, and the tissue weight is measured.
3. A 0.02 M Tris-HCl buffer (pH 7.4) is added to the tissue in an amount of 10 times by volume the tissue weight. This mixture is homogenized at 8,000 rpm for 20 seconds and then centrifuged at 4° C. and 21,000 rpm for 30 minutes, and the resulting supernatant is discarded.
4. The same procedure as the above 3 is repeated twice for the residue. Then, a 0.02 M Tris-HCl buffer (pH 7.4) containing 1% Triton X-100 and 0.01 M potassium chloride is added to the residue in an amount of 10 times by volume the amount of the residue. This mixture is homogenized at 8,000 rpm for 20 seconds, then incubated at 4° C. for one hour and centrifuged at 21,000 rpm for 30 minutes, and the supernatant is discarded.
5. A 0.02 M Tris-HCl buffer (pH 7.4) containing 1% Triton X-100 and 0.5 M potassium chloride is added to the residue in an amount of 10 times by volume the amount of the residue. This mixture is homogenized at 8,000 rpm for 20 seconds, then incubated at 4° C. for one hour and centrifuged at 21,000 rpm for 30 minutes, and the supernatant is discarded.
6. A 0.02 M Tris-HCl buffer (pH 7.4) containing 1% Triton X-100 and 2.0 M potassium chloride is added to the residue in an amount of 10 times the amount of the residue. This mixture is homogenized at 8,000 rpm for 20 seconds, then incubated at 4° C. for one hour and centrifuged at 21,000 rpm for 30 minutes. The obtained supernatant is used as a chymase enzyme solution.
Tris-HCl and disodium ethylenediaminetetraacetate are dissolved in water so that their concentrations are 92.3 mM and 12.0 mM respectively to prepare a reaction buffer adjusted to pH 8.
Angiotensin I is dissolved in water to prepare a 1.54 mM substrate solution.
A test compound is dissolved in dimethyl sulfoxide to prepare 3.0×10^−3 M, 3.0×10^−4 M, 3.0×10^−5 M and 3.0×10^−6 M test com solutions.
1. The reaction buffer (32.5 μl), the substrate solution (75.0 μl), the chymase enzyme solution (37.5 μl) and the test compound solution (5 μl) are mixed.
2. The obtained mixture is incubated at 37° C. for one hour.
3. To the mixture is added 15% trichloroacetic acid (225 μl), and the whole is centrifuged at 4° C. and 14,000 rpm for five minutes.
4. The supernatant is taken out. A 1% orthophthalaldehyde/methanol solution (165 μl) is added to 300 μl of this supernatant, and the whole is stirred and allowed to stand at room temperature for 10 minutes.
5. 1.5 M Hydrochloric acid (300 μl) is added to the resulting mixture, and the whole is stirred and centrifuged at 4° C. and 14,000 rpm for two minutes.
6. The supernatant is taken out and irradiated with light having a wavelength of 340 nm, and fluorescence intensity is measured at a wavelength of 455 nm.
The blank of this test is defined as follows. The same procedures as in the above 1 to 6 are repeated provided that a 20 mM Tris-HCl buffer (pH 7.4, 37.5 μl) containing 1% Triton X-100 and 2.0 M potassium chloride is used instead of the chymase enzyme solution (37.5 μl), and dimethyl sulfoxide (5 μl) is used instead of the test compound solution (5 μl) in the above 1. The obtained […] is the blank value. […]

By melting point is commonly meant the temperature, or range, at which the solid turns liquid. In turn, `CC(C)OC(=O)C(=O)[C@H](Cc1ccccc1)NC(=O)[C@@H]1CSC(c2ccccc2)N1C(=O)[C@@H](NC(=O)N(C)CCN)C(C)C` (mixture of isomers) (as salt: hydrochloride) [Compound No. 6-2, Isopropyl (3S)-3-[(2RS,4R)-3-[(2S)-2-[[N-(2-aminoethyl)-N-methylamino]carbonyl]amino]-3-methyl-1-oxobutyl]-2-phenyl-1,3-thiazolidin-4-ylcarboxamidol-2-oxo-4-phenylbutyrate hydrochloride] yielded a melting point of 90 °C.

`CC(C)OC(=O)C(=O)[C@H](Cc1ccccc1)NC(=O)[C@@H]1CSC(c2ccccc2)N1C(=O)[C@@H](NC(=O)N(C)CCN)C(C)C` (mixture of isomers) [Compound No. 6-2, Isopropyl (3S)-3-[(2RS,4R)-3-[(2S)-2-[[N-(2-aminoethyl)-N-methylamino]carbonyl]amino]-3-methyl-1-oxobutyl]-2-phenyl-1,3-thiazolidin-4-ylcarboxamidol-2-oxo-4-phenylbutyrate hydrochloride]: in data set [1], the pIC50 was 7.24.

As to `CC(C)OC(=O)C(=O)[C@H](Cc1ccccc1)NC(=O)[C@@H]1CSCN1C(=O)[C@@H](NC(=O)OCc1ccccc1)C(C)C` [Compound No. 2-1, Isopropyl (3S)-3-[(4R)-3-[(2S)-3-methyl-1-oxo-2-[[(phenylmethoxy)carbonyl]amino]butyl]-1,3-thiazolidin-4-ylcarboxamido]-2-oxo-4-phenylbutyrate], the pIC50 in data set [1] was 7.33.

For `COCC(=O)N[C@H](C(=O)N1CSC[C@H]1C(=O)N[C@@H](Cc1ccccc1)C(=O)C(=O)OC(C)C)C(C)C` [Compound No. 2-19, Isopropyl (3S)-3-[(4R)-3-[(2S)-2-[(methoxymethyl)carbonyl]amino-3-methyl-1-oxobutyl]-1,3-thiazolidin-4-ylcarboxamido]-2-oxo-4-phenylbutyrate], the pIC50 in data set [1] was 7.25.

Consider `CC(C)OC(=O)C(=O)[C@H](Cc1ccccc1)NC(=O)[C@@H]1CSCN1C(=O)[C@@H](NC(=O)COc1ccccc1)C(C)C` [Compound No. 2-20, Isopropyl (3S)-3-[(4R)-3-[(2S)-3-methyl-1-oxo-2-[[(phenoxylmethyl)carbonyl]amino]butyl]-1,3-thiazolidin-4-ylcarboxamido]-2-oxo-4-phenylbutyrate], for which the pIC50 in data set [1] was 7.36.

On to `CC(C)OC(=O)C(=O)[C@H](Cc1ccccc1)NC(=O)[C@@H]1CSCN1C(=O)[C@@H](NC(=O)OC(C)(C)C)C(C)C` [Compound No. 2-21, Isopropyl (3S)-3-[(4R)-3-[(2S)-2-(tert-butoxycarbonyl)amino-3-methyl-1-oxobutyl]-1,3-thiazolidin-4-ylcarboxamido]-2-oxo-4-phenylbutyrate], for which, in data set [1], the pIC50 was 7.59.

`CC(C)OC(=O)C(=O)[C@H](Cc1ccccc1)NC(=O)[C@@H]1CSCN1C(=O)[C@@H](NC(=O)N(C)Cc1ccccc1)C(C)C` [Compound No. 2-25, Isopropyl (3S)-3-[(4R)-3-[(2S)-3-methyl-2-[[N-methyl-N-(phenylmethyl)amino]carbonyl]amino-1-oxobutyl]-1,3-thiazolidin-4-ylcarboxamido]-2-oxo-4-phenylbutyrate]: the pIC50 in data set [1] is 7.51.

`CC(C)OC(=O)C(=O)[C@H](Cc1ccccc1)NC(=O)[C@@H]1CSCN1C(=O)[C@@H](NC(=O)N(C)CCNC(=O)OC(C)(C)C)C(C)C` [Compound No. 2-26, Isopropyl (3S)-3-[(4R)-3-[(2S)-2-[[N-[2-[(tert-butoxycarbonyl)amino]ethyl]-N-methylamino]carbonyl]amino-3-methyl-1-oxobutyl]-1,3-thiazolidin-4-ylcarboxamido]-2-oxo-4-phenylbutyrate]: the pIC50 in data set [1] is 7.92.

`CC(C)[C@H](NC(=O)OCc1ccccc1)C(=O)N1CSC[C@H]1C(=O)N[C@@H](Cc1ccccc1)C(=O)C(=O)OCc1ccccc1` [Compound No. 2-37, Phenylmethyl (3S)-3-[(4R)-3-[(2S)-3-methyl-1-oxo-2-[[(phenylmethoxy)carbonyl]amino]butyl]-1,3-thiazolidin-4-ylcarboxamido]-2-oxo-4-phenylbutyrate]: the pIC50 in data set [1] was 7.18.
